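Five compound concentrations were applied to cells in 96-well plates for 48 hours; endpoints were derived by simple linear interpolation of the resulting dose-response curve. GI50: concentration for 50% inhibition of growth.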 Calls of active or inactive are those of the source. No stated cut-off is given here; in the data, active = GI50 up to about 1.1 µM and inactive = higher.
Columns and labels:
Assay in all cases: DTP human tumour cell line panel, 48 h
[1] = test system: SF-539
[2] = test system: DLD-1
[3] = test system: HL-60
[4] = test system: HCT-15
[5] = test system: XF498
[6] = test system: OVCAR-4
[7] = test system: A549
[8] = test system: NCI-H460
[9] = test system: SK-MEL-5
[10] = test system: KM-20L2
[11] = test system: LOX IMVI
[12] = test system: CCRF-CEM
[13] = test system: NCI-H23
[14] = test system: HOP-62
[15] = test system: SNB-75
[16] = test system: SK-MEL-28
[17] = test system: HOP-18
[18] = test system: MDA-N
[19] = test system: DU-145
[20] = test system: T47D

Row | Structure (SMILES) | GI50 [1] | GI50 [2] | GI50 [3] | GI50 [4] [µM] | GI50 [5] | GI50 [6] | GI50 [7] | GI50 [8] | GI50 [9] | GI50 [10] | GI50 [11] | GI50 [12] | GI50 [13] | GI50 [14] | GI50 [15] | GI50 [16] | GI50 [17] | GI50 [18] | GI50 [19] | GI50 [20]
1 | CCOC1=NC(=O)CC(c2ccccc2)S1 (stereo not drawn) | > 100 µM (inactive) | 95.5 µM (inactive) | > 100 µM (inactive) | > 100 | > 100 µM (inactive) | > 100 µM (inactive) | > 100 µM (inactive) | > 100 µM (inactive) | > 100 µM (inactive) | > 100 µM (inactive) | > 100 µM (inactive) | 69.3 µM (inactive) | – | – | – | – | – | – | – | –
2 | Cc1cn(C2CC(N(O)Cc3ccccc3)C(CO)O2)c(=O)[nH]c1=O (stereo not drawn) | > 100 µM (inactive) | – | > 100 µM (inactive) | > 100 | > 100 µM (inactive) | > 100 µM (inactive) | > 100 µM (inactive) | > 100 µM (inactive) | > 100 µM (inactive) | > 100 µM (inactive) | > 100 µM (inactive) | > 100 µM (inactive) | > 100 µM (inactive) | > 100 µM (inactive) | > 100 µM (inactive) | > 100 µM (inactive) | – | – | – | –
3 | O=C(/C(=C\c1ccc(Cl)cc1)c1ccccc1)c1ccccc1 | > 100 µM (inactive) | 93.5 µM (inactive) | 15 µM (inactive) | 90.4 | 37.6 µM (inactive) | 26.3 µM (inactive) | – | 53.8 µM (inactive) | – | – | 29.9 µM (inactive) | > 100 µM (inactive) | 72.6 µM (inactive) | 63.2 µM (inactive) | 88.9 µM (inactive) | > 100 µM (inactive) | > 100 µM (inactive) | – | – | –
4 | CCOC(=O)CC1=Nc2ccccc2SC1 | > 100 µM (inactive) | > 100 µM (inactive) | – | > 100 | > 100 µM (inactive) | > 100 µM (inactive) | > 100 µM (inactive) | > 100 µM (inactive) | > 100 µM (inactive) | > 100 µM (inactive) | > 100 µM (inactive) | – | > 100 µM (inactive) | > 100 µM (inactive) | > 100 µM (inactive) | 1.29 µM (inactive) | > 100 µM (inactive) | – | – | –
5 | CCC(C)(O)c1cn(-c2ccc(Cl)cc2)nn1 (stereo not drawn) | > 100 µM (inactive) | > 100 µM (inactive) | > 100 µM (inactive) | > 100 | – | > 100 µM (inactive) | > 100 µM (inactive) | > 100 µM (inactive) | > 100 µM (inactive) | > 100 µM (inactive) | > 100 µM (inactive) | > 100 µM (inactive) | > 100 µM (inactive) | > 100 µM (inactive) | > 100 µM (inactive) | > 100 µM (inactive) | > 100 µM (inactive) | – | – | –
6 | CSc1c([S+](C)[O-])[nH]c2cc(Br)cc(Br)c12 (stereo not drawn) | 22.4 µM (inactive) | 16.5 µM (inactive) | 21.3 µM (inactive) | 22.8 | – | – | 24 µM (inactive) | 16.7 µM (inactive) | 18.3 µM (inactive) | – | 16.2 µM (inactive) | 22.2 µM (inactive) | 19.3 µM (inactive) | – | 17.3 µM (inactive) | 20.7 µM (inactive) | 39.5 µM (inactive) | – | – | –
7 | CC(=O)CCC1(c2ccccc2)OC(=O)C(C#N)=C1c1ccccc1 (stereo not drawn) | > 100 µM (inactive) | > 100 µM (inactive) | – | > 100 | > 100 µM (inactive) | 80.4 µM (inactive) | > 100 µM (inactive) | > 100 µM (inactive) | > 100 µM (inactive) | > 100 µM (inactive) | > 100 µM (inactive) | 43.5 µM (inactive) | > 100 µM (inactive) | > 100 µM (inactive) | 29.4 µM (inactive) | > 100 µM (inactive) | – | – | – | –
8 | CCCCCCCCCC(=O)NC(Cc1ccc(O)cc1)C(=O)NCCCNCCCCNCCCNC(=O)[C@@H](N)CCCN=C(N)N (stereo partly drawn) | 11 µM (inactive) | – | 16.2 µM (inactive) | 86.7 | > 100 µM (inactive) | – | 76 µM (inactive) | 15.5 µM (inactive) | 12.8 µM (inactive) | > 100 µM (inactive) | 84.1 µM (inactive) | 84.9 µM (inactive) | 57.7 µM (inactive) | 22.9 µM (inactive) | – | 19.2 µM (inactive) | – | – | – | –
9 | NC(CSSCC(N)Cc1ccccc1)Cc1ccccc1 (stereo not drawn) | – | 49.5 µM (inactive) | 32.7 µM (inactive) | 66.7 | 27.1 µM (inactive) | 70.8 µM (inactive) | 65.8 µM (inactive) | 40.8 µM (inactive) | 24 µM (inactive) | 71.1 µM (inactive) | 29.7 µM (inactive) | 32.9 µM (inactive) | 44.4 µM (inactive) | > 100 µM (inactive) | > 10 µM (inactive) | 43.4 µM (inactive) | – | – | – | –
10 | C[C@]12CC/C(=N\O)C=C1CC[C@@H]1C2CC[C@@]2(C)C1CC[C@@H]2OC1CCCCO1 (stereo partly drawn) | > 10 µM (inactive) | 30.7 µM (inactive) | – | 20.1 | – | 15.6 µM (inactive) | 22.6 µM (inactive) | 20.4 µM (inactive) | 32.1 µM (inactive) | 14.4 µM (inactive) | 17.7 µM (inactive) | – | 17.3 µM (inactive) | 31.2 µM (inactive) | 18.9 µM (inactive) | 22.7 µM (inactive) | 16.4 µM (inactive) | – | – | –
11 | NC1=NS(=O)(=O)Nc2nc(-c3ccc([N+](=O)[O-])cc3)[nH]c21 | > 100 µM (inactive) | > 100 µM (inactive) | > 100 µM (inactive) | > 100 | – | > 100 µM (inactive) | > 100 µM (inactive) | > 100 µM (inactive) | > 100 µM (inactive) | – | > 100 µM (inactive) | > 100 µM (inactive) | > 100 µM (inactive) | > 100 µM (inactive) | > 100 µM (inactive) | > 100 µM (inactive) | > 100 µM (inactive) | – | – | –
12 | COCC1C(=O)c2cc3c(cc2C12C=CC1(C=C2)OCCO1)OCO3 (stereo not drawn) | 15.6 µM (inactive) | 2.22 µM (inactive) | 2.09 µM (inactive) | 1.6 | 5.38 µM (inactive) | 14.2 µM (inactive) | 15.4 µM (inactive) | 13.8 µM (inactive) | > 10 µM (inactive) | 10.6 µM (inactive) | – | 0.583 µM (active) | 12.5 µM (inactive) | 21.6 µM (inactive) | 14.9 µM (inactive) | 14.5 µM (inactive) | – | – | – | –
13 | Cc1cc(C)nc(NS(=O)(=O)c2ccc(Nc3c4ccccc4nc4c(C(=O)NCCN(C)C)ccc(Cl)c34)cc2)n1 | 2.36 µM (inactive) | 3.03 µM (inactive) | 1.44 µM (inactive) | 2.78 | 5.13 µM (inactive) | 1.1 µM (active) | 0.942 µM (active) | 0.39 µM (active) | 4.38 µM (inactive) | 2.08 µM (inactive) | 0.711 µM (active) | 1.31 µM (inactive) | 2.43 µM (inactive) | 2.85 µM (inactive) | 2.59 µM (inactive) | 5.4 µM (inactive) | – | – | – | –
14 | O=C(NO)C12C3C4C1C1C2C3C41C(=O)NO (stereo not drawn) | > 100 µM (inactive) | > 100 µM (inactive) | > 100 µM (inactive) | > 100 | – | – | > 100 µM (inactive) | > 100 µM (inactive) | > 100 µM (inactive) | > 100 µM (inactive) | > 100 µM (inactive) | > 100 µM (inactive) | – | > 100 µM (inactive) | > 100 µM (inactive) | > 100 µM (inactive) | > 100 µM (inactive) | – | – | –
15 | O=C1CC(c2c[nH]c3ccccc23)C(=O)N1 (stereo not drawn) | > 100 µM (inactive) | > 100 µM (inactive) | > 100 µM (inactive) | > 100 | > 100 µM (inactive) | > 100 µM (inactive) | > 100 µM (inactive) | > 100 µM (inactive) | > 100 µM (inactive) | > 100 µM (inactive) | – | > 100 µM (inactive) | > 100 µM (inactive) | > 100 µM (inactive) | > 100 µM (inactive) | > 100 µM (inactive) | – | – | – | –
16 | O=S(=O)(O)C(CO)c1ccccc1.O=S(=O)(O)Cc1ccccc1 (stereo not drawn) | > 100 µM (inactive) | – | 5.35 µM (inactive) | > 100 | – | > 100 µM (inactive) | > 100 µM (inactive) | > 100 µM (inactive) | > 100 µM (inactive) | – | > 100 µM (inactive) | 19.6 µM (inactive) | > 100 µM (inactive) | > 100 µM (inactive) | > 100 µM (inactive) | > 100 µM (inactive) | – | > 100 µM (inactive) | > 100 µM (inactive) | > 100 µM (inactive)
17 | COc1cccc(C2c3cc4c(cc3OC(N3CCCCC3)C2C)OCO4)c1O (stereo not drawn) | 2.22 µM (inactive) | – | 2.54 µM (inactive) | 4.21 | – | 7.38 µM (inactive) | 6.52 µM (inactive) | 4.13 µM (inactive) | 3.62 µM (inactive) | – | 5.21 µM (inactive) | 2.4 µM (inactive) | 7.31 µM (inactive) | 4.11 µM (inactive) | 5.41 µM (inactive) | 6.27 µM (inactive) | – | 2.3 µM (inactive) | 7.53 µM (inactive) | 8.38 µM (inactive)
18 | COC(=O)/C(=N\Nc1nc(S)nn1N)C(C#N)c1ccc(Cl)cc1 (stereo not drawn) | > 100 µM (inactive) | > 100 µM (inactive) | – | > 100 | > 100 µM (inactive) | > 100 µM (inactive) | > 100 µM (inactive) | > 100 µM (inactive) | – | > 100 µM (inactive) | > 100 µM (inactive) | – | > 100 µM (inactive) | > 100 µM (inactive) | > 100 µM (inactive) | > 100 µM (inactive) | > 100 µM (inactive) | – | – | –
19 | COc1c(C)cc2c(c1O)C1C3[C@H]4SC[C@@]5(NCCC6=C5NC5C=CC=CC65)C(=O)OCC(c5c6c(c(C)c(OC(C)=O)c54)OCO6)N3[C@@H](O)C(C2)N1C (stereo partly drawn) | < 0.01 µM (active) | < 0.01 µM (active) | < 0.01 µM (active) | < 0.01 | < 0.01 µM (active) | – | < 0.01 µM (active) | < 0.01 µM (active) | < 0.01 µM (active) | < 0.01 µM (active) | < 0.01 µM (active) | < 0.01 µM (active) | < 0.01 µM (active) | < 0.01 µM (active) | < 0.01 µM (active) | 0.0134 µM (active) | – | – | – | –
